In the supplement of paper PMC4862054:
Several values for one entry are separate records, joined by “and”; a condition that tells them apart may be missing. Identical values can stand only once.

Assays:
Conditions in all cases: incubation time: 72 h
HDQ-P1 [1] = assay: normalised viability (% of control), CellTiter-Blue; higher = more viable cells (about 100 = DMSO control)
Protocol: (§1)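 DSRT, CellTiter-Blue viability, 72 h incubation. Signal is normalised to DMSO and benzethonium chloride controls. Value is the normalised response at dose 9.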

CAL-85-1 = assay: as above
Protocol: as §1

CAL-148 [2] = assay: as above
Protocol: as §1

CAL-51 [3] = assay: as above
Protocol: as §1

MDA-MB-453 [4] = assay: as above
Protocol: as §1

DU-4475 = assay: as above
Protocol: as §1

HCC1937 = assay: normalised response (% of control), CellTiter-Glo; higher = more viable cells (100 = DMSO, 0 = benzethonium chloride kill control)
Summary of the method: (§2)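 Breast cancer cell lines (20 µl suspension) were seeded into 384-well plates holding compound at 5 concentrations in 10-fold steps over a compound-specific 10,000-fold range, then incubated 72 h. CellTox Green fluorescence (485/520 nm) was read first, then CellTiter-Glo luminescence after 10 min at room temperature. Each plate was normalised to 0.1 % DMSO (100) and a positive kill control (0). Each value is the normalised signal at a single concentration of the series.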

HDQ-P1 [5] = assay: as above
Summary of the method: as §2

BT-474 = assay: as above
Summary of the method: as §2

CAL-148 [6] = assay: as above
Summary of the method: as §2

MCF-10A = assay: as above
Summary of the method: as §2

CAL-51 [7] = assay: as above
Summary of the method: as §2

HCC1599 = assay: as above
Summary of the method: as §2

MDA-MB-436 = assay: as above
Summary of the method: as §2

HCC1143 = assay: as above
Summary of the method: as §2

MDA-MB-453 [8] = assay: as above
Summary of the method: as §2

BT-549 = assay: as above
Summary of the method: as §2

SK-BR-3 = assay: as above
Summary of the method: as §2

Hs578T = assay: as above
Summary of the method: as §2

CAL-120 = assay: as above
Summary of the method: as §2

Row | Compound | normalised viability (HDQ-P1 [1]) | normalised viability (CAL-85-1) | normalised viability (CAL-148 [2]) | normalised viability (CAL-51 [3]) | normalised viability (MDA-MB-453 [4]) | normalised viability (DU-4475) | normalised response (HCC1937) [%] | normalised response (HDQ-P1 [5]) [%] | normalised response (BT-474) [%] | normalised response (CAL-148 [6]) [%] | normalised response (MCF-10A) [%] | normalised response (CAL-51 [7]) [%] | normalised response (HCC1599) [%] | normalised response (MDA-MB-436) [%] | normalised response (HCC1143) [%] | normalised response (MDA-MB-453 [8]) [%] | normalised response (BT-549) [%] | normalised response (SK-BR-3) [%] | normalised response (Hs578T) [%] | normalised response (CAL-120) [%]
1 | O=C(Nc1cccnc1)N1CCC(Cc2cccc(Oc3ccc(C(F)(F)F)cn3)c2)CC1 [PF-3845] (10000 nM) | 128% | 93.4% | 98.2% | 65.5% | 38.4% | 108% | 75.3 | 95.2 | 93.3 | 88.4 | 93.4 | 44.6 | 46.2 | 72.6 | 86.1 | 74.7 | 71.7 | 57.1 | 92.1 | 86
2 | COCC[n+]1c2c(n(Cc3cnccn3)c1C)C(=O)c1ccccc1C2=O [YM155] (10000 nM) | 0.66% | 2.71% | 2.13% | 1.83% | 2% | 0.83% | 0.28 | 1.64 | 1.71 | -0.38 | -0.72 | -0.12 | -0.77 | -0.62 | -0.39 | -0.58 | -0.36 | -0.43 | -0.62 | -0.38
3 | CN(C)c1nc(N(C)C)nc(N(C)C)n1 [Altretamine] (10000 nM) | 111% | 46.5% | 63.4% | 72.6% | 18.7% | 94.7% | 100 | 97.8 | 98.7 | 106 | 107 | 109 | 112 | 107 | 100 | 108 | 102 | 108 | 105 | 100
4 | CNC(=O)c1cc(Oc2ccc(NC(=O)Nc3ccc(Cl)c(C(F)(F)F)c3)c(F)c2)ccn1 [Regorafenib] (10000 nM) | 92.9% | 76.7% | 81.7% | 48.2% | 22% | 39.3% | 50.1 | 57.4 | 50 | 66.7 | 46.2 | 73.8 | 36.5 | 46.9 | 77.8 | 59.1 | 43.7 | 51.7 | 47 | 49.8
5 | CN(C)CCOc1ccc(/C(=C(/CCCl)c2ccccc2)c2ccccc2)cc1 [Toremifene] (10000 nM) | 108% | 83.6% | 104% | 105% | 26.5% | 94.5% | 49.1 | 87.7 | 68.5 | 86.7 | 63.5 | 98.3 | 77.9 | 83.7 | 96.8 | 63.8 | 81.8 | 67.1 | 82.1 | 90.7
6 | CC(C)C[C@@H](C(=O)N[C@H](C(=O)OC1CCCC1)c1ccccc1)[C@H](O)C(=O)NO [Tosedostat] (10000 nM) | 76.5% | 49.5% | 23.2% | 33.6% | 18.8% | 35.2% | 60.4 | 59.9 | 24.8 | 67.1 | 76.5 | 71.9 | 89 | 64.5 | 55.1 | 47.6 | 42.7 | 74 | 63.1 | 47.9
7 | Cc1ccc(NC(=O)c2ccc(CN3CCN(C)CC3)cc2)cc1Nc1nc(-c2cccnc2)cs1 [Masitinib] (10000 nM) | 67.6% | 70.4% | 74.5% | 80.4% | 24.4% | 119% | 65 | 75.5 | 33.2 | 97.7 | 91.6 | 59.1 | 49.6 | 51.7 | 80.5 | 55.6 | 59.5 | 31.8 | 96.6 | 80.8
8 | CCc1c2c(nc3ccc(OC(=O)N4CCC(N5CCCCC5)CC4)cc13)-c1cc3c(c(=O)n1C2)COC(=O)[C@]3(O)CC [Irinotecan] (10000 nM) | 64% and 80% | – | – | 8.48% and 31.6% | – | 4.69% and 18.8% | 70.9 | 73.3 | 69.5 | 26.4 | 68.2 | 34.8 | 29.8 | 36.8 | 60.1 | 102 | 49.1 | 47.4 | 86.9 | 70
9 | C=C1C[C@@H]2[C@H](CC[C@]3(C)C(=O)CC[C@@H]23)[C@@]2(C)C=CC(=O)C=C12 [Exemestane] (10000 nM) | 103% | 99.1% | 104% | 105% | 81% | 88.9% | 89.5 | 92.3 | 108 | 112 | 107 | 81.7 | 107 | 88 | 94.1 | 95.7 | 94.5 | 89.3 | 102 | 101
10 | N#Cc1ccc(COC[C@H]2O[C@@H](n3c(NCc4ccc(Cl)c(Cl)c4)nc4c(N)ncnc43)[C@H](O)[C@@H]2O)cc1 (10000 nM) | 88.4% | 92% | 89% | 89.9% | 50.3% | 76.9% | 51.6 | 69.6 | 68.2 | 83.7 | 59.2 | 88 | 65.7 | 85.1 | 66.2 | 75 | 61.8 | 47.4 | 78.2 | 83.7
11 | O=P1(N(CCCl)CCCl)NCCCO1 (stereo not given) [Cyclophosphamide] (40000 nM) | 120% | 98.4% | 110% | 101% | 117% | 94.4% | 95.8 | 96.8 | 92.8 | 101 | 109 | 131 | 92.9 | 96.3 | 105 | 101 | 100 | 108 | 106 | 94.4
12 | COc1cc(OC2CCN(C)CC2)ccc1Nc1ncc2c(n1)n(C1CCCC1)c(=O)n2C [AZ 3146] (10000 nM) | 80.1% | 72.4% | 48.4% | 22% | 37.4% | 54.6% | 70.3 | 70.6 | 59.9 | 58.7 | 47.8 | 48.9 | 37.8 | 79.3 | 70.4 | 95.7 | 64.3 | 52.4 | 63 | 81
13 | Oc1ccc2c(c1)CC[C@H](c1ccccc1)[C@@H]2c1ccc(OCCN2CCCC2)cc1 [Lasofoxifene] (1000 nM) | 125% | 81.8% | 107% | 90% | 107% | 97.8% | 99.3 | 94.1 | 103 | 122 | 117 | 78.9 | 99.2 | 110 | 97.7 | 88.7 | 95.2 | 105 | 107 | 114
14 | Cc1[nH]c2ccccc2c1CCNCc1ccc(/C=C/C(=O)NO)cc1 [Panobinostat] (1000 nM) | 15% | 4.25% | 0.37% | 1.29% | 1.09% | 4.66% | 20.7 | 26.4 | 7.51 | 0.3 | 11 | 8.29 | 6.35 | 30.2 | 13.4 | 2.01 | 14.4 | 0.27 | 5.17 | 9.89
15 | c1ccc2c(CCNc3ccc(Nc4ccncc4)cc3)c[nH]c2c1 [Serdemetan] (10000 nM) | 56.6% | 55.1% | 55.8% | 57% | 39.4% | -0.82% | 49.7 | 73.6 | 51.8 | 21.3 | 52.6 | 9.77 | 14.4 | 44.8 | 52.9 | 42.3 | 23.6 | 15.5 | 48.1 | 67.3
16 | CO[C@H]1C[C@@H]2CC[C@@H](C)[C@@](O)(O2)C(=O)C(=O)N2CCCC[C@H]2C(=O)O[C@H]([C@H](C)C[C@@H]2CC[C@@H](OP(C)(C)=O)[C@H](OC)C2)CC(=O)[C@H](C)/C=C(\C)[C@@H](O)[C@@H](OC)C(=O)[C@H](C)C[C@H](C)/C=C/C=C/C=C/1C [Ridaforolimus] (100 nM) | – | – | – | – | – | – | 69.3 | 79 | 81.5 | 58.8 | 85.1 | 62 | 108 | 82.5 | 67.1 | 62.8 | 54.8 | 56.9 | 69.6 | 64.8
17 | COc1cc2ncnc(Nc3ccc(F)c(Cl)c3)c2cc1OCCCN1CCOCC1 [Gefitinib] (10000 nM) | 59.6% and 51.1% | 45% and 40.7% | 69.2% and 65% | 82.1% and 81.6% | 29.8% and 23% | 102% and 105% | 60.9 | 56 | 69.8 | 69.7 | 26.1 | 100 | 81.9 | 74.1 | 77 | 60.3 | 73.6 | 27.1 | 97 | 83.6
18 | O=C(/C=C/c1cccc(S(=O)(=O)Nc2ccccc2)c1)NO [Belinostat] (10000 nM) | 23% | 7.19% | 0.35% | 3.47% | 1.48% | 4.25% | 20.5 | 30.4 | 5.7 | -0.03 | 16.1 | 44.5 | 5.36 | 29.3 | 12.4 | 2.73 | 17.8 | 0 | 7.71 | 7.76
19 | COc1cc2/c(=N/c3ccc(Br)cc3F)nc[nH]c2cc1OCC1CCN(C)CC1 [Vandetanib] (1000 nM) | – | – | – | – | – | – | 78 | 56.3 | 79.3 | 78.9 | 27.1 | 99.1 | 76.2 | 86 | 86.4 | 74.5 | 95 | 74.3 | 91.7 | 89.6
